“Also recorded” adds a separate entry of the source. Like-named read-outs stand apart in the source and are kept apart here.
Key:
insulin receptor (IR) = insulin receptor (IR) (Homo sapiens, UniProt P06213); assay: Binding to the insulin receptor by ultraviolet spectroscopy; details: UV spectroscopy
Procedure: (§1) UV spectroscopy in a crystal plate was used to investigate whether CAP has specificity for estrogen alone or whether it can bind to other naturally occurring hormones. To start, CAP was dissolved in a 1:1 solution of water to ethanol at 1 mg/mL ( 3.27×10^−3 M ) and then diluted by thirds eight times. Next, the hormones were dissolved in a 1:1 solution of water to ethanol at a 1/100 dilution. An amount of 50 μL of each CAP dilution was added to 3 wells of a crystal plate, with one well serving as the control, with another 50 μL of 1:1 water to ethanol added, and the other two serving as experimental duplicates, with 50 μL of the prepared hormone solution added. Then, two additional wells were prepared to serve as controls: one containing 100 μL of 1:1 water to ethanol and the other containing 50 μL of prepared hormone solution and 50 μL of 1:1 water to ethanol. Finally, the plate was incubated for 1 h and read in a Spectramax UV-VIS scanning spectrophotometer, spanning wavelengths from 190 to 400 nm. Data analysis involved the subtraction of observed absorbance values from expected absorbance values generated from the control wells ([CAP + 1:1 solution] + [hormone + 1:1 solution] − [1:1 solution]) and plotting them as a function of CAP concentration. Because the solvent (1:1 solution of water–ethanol) was used as a control and subtracted from all wells, the resulting data reflected only the absorbances of the solute compounds. Since each compound has a different lambda maximal absorbance, analysis of the resulting data required finding one common wavelength at which the additions and subtractions of the spectra could be carried out and at which the absorbance of each compound was maximized.
[17, 19, 20, 21, 22, 23]. […] Because CAP binds to INS, it was possible that it might antagonize INS binding to its receptor. […] Two types of ultraviolet spectroscopy experiments were performed. In one, INS (1 µM) and the IR were kept constant and the concentration of CAP increased from 0.1 µM to 100 µM. In the other, the CAP (25 µM) and IR were kept constant and the concentration of INS increased from 10 nM to 10 µM. In neither experiment was any significant change in the INS binding curve observed.
CAP did bind to the ESR1 with what appears to be a high affinity (Kd = 0.9 µM) and a lower affinity (Kd = 10 µM) site. […] Other vanilloid compounds also bound to the ESR1 but with lower affinity than CAP (Figure 6). None bound to the IR.

Mice [1] = tested on: Mice; parameters: method as in doi:10.32604/biocell.2023.028222; details: cited from earlier work
Human, Mice = tested on: Human, Mice; parameters: method as in PMID 29772784; details: Both ***; cited from earlier work
Human (NSCLC cells) = tested on: Human (NSCLC cells); parameters: method as in PMID 24926985; details: cited from earlier work
[2] = target: T1, Estrogen receptor alpha (ER alpha) recombinant protein (ESR1) (Homo sapiens, UniProt P03372); assay: Binding to the estrogen receptor by ultraviolet spectroscopy
T1 sequence (P03372 1-595): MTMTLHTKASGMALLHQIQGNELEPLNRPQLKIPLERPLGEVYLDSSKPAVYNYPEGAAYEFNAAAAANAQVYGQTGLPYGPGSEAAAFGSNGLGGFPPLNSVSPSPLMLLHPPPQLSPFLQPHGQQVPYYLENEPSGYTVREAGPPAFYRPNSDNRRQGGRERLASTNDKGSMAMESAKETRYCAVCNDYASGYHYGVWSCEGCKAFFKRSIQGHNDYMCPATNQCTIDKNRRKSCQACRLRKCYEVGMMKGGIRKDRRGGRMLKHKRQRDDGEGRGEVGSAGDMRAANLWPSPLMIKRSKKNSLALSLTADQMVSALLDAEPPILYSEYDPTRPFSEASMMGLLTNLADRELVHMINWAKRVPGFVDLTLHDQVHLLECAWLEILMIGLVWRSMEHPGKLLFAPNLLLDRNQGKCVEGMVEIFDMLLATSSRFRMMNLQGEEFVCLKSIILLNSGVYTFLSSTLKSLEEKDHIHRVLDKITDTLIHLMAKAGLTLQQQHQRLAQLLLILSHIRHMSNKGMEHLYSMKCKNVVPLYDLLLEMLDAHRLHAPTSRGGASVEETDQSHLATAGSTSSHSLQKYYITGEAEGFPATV

[3] = target: insulin (human recombinant) (Homo sapiens, UniProt P01308); assay: Binding to insulin by ultraviolet spectroscopy; details: UV spectroscopy
Human (male) = tested on: Human (male); parameters: method as in PMID 8926537; details: cited from earlier work
T1DM rats = tested on: T1DM rats; parameters: method as in PMID 28230360; details: cited from earlier work
[4] = tested on: Human (prostate cancer cells); parameters: method as in PMID 19705615; details: cited from earlier work
[5] = Binding to steroid hormone by UV spectroscopy
Procedure: as §1
Experiments were also performed to test whether the enhancement or antagonism observed in estradiol binding to the ESR1 might be due to vanilloid compounds binding directly to estradiol or to related steroidal hormones, perhaps protecting them from oxidation or forming a complex that prevented the estradiol binding to its receptor. No vanilloid compound bound to a measurable degree to estradiol or any other steroidal hormone tested.

[6] = tested on: Human nasopharyngeal carcinoma; parameters: method as in PMID 28644386; details: cited from earlier work
Mice [7] = tested on: Mice; parameters: method as in PMID 23536811; details: cited from earlier work
ESR1 = target: T2, ESR1 (Homo sapiens, UniProt P03372); assay: Competitive-binding ELISA of EST-HRP binding to the estrogen receptor; details: for shift of the estradiol (EST-HRP) binding curve: maximal shift
T2 construct: purchased Invitrogen-Thermofisher
T2 sequence (P03372 1-595): T1 sequence (P03372 1-595)

Rats (female) = tested on: Rats (female); parameters: method as in PMID 29294454; details: cited from earlier work

Chain of insulin (human recombinant) (P01308 25-54 limits assumed): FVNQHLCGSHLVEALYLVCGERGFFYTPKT
Chain of insulin (human recombinant) (P01308 90-110 limits assumed): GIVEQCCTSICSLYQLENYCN
Chain of insulin receptor (IR) (P06213 28-1382, species assumed): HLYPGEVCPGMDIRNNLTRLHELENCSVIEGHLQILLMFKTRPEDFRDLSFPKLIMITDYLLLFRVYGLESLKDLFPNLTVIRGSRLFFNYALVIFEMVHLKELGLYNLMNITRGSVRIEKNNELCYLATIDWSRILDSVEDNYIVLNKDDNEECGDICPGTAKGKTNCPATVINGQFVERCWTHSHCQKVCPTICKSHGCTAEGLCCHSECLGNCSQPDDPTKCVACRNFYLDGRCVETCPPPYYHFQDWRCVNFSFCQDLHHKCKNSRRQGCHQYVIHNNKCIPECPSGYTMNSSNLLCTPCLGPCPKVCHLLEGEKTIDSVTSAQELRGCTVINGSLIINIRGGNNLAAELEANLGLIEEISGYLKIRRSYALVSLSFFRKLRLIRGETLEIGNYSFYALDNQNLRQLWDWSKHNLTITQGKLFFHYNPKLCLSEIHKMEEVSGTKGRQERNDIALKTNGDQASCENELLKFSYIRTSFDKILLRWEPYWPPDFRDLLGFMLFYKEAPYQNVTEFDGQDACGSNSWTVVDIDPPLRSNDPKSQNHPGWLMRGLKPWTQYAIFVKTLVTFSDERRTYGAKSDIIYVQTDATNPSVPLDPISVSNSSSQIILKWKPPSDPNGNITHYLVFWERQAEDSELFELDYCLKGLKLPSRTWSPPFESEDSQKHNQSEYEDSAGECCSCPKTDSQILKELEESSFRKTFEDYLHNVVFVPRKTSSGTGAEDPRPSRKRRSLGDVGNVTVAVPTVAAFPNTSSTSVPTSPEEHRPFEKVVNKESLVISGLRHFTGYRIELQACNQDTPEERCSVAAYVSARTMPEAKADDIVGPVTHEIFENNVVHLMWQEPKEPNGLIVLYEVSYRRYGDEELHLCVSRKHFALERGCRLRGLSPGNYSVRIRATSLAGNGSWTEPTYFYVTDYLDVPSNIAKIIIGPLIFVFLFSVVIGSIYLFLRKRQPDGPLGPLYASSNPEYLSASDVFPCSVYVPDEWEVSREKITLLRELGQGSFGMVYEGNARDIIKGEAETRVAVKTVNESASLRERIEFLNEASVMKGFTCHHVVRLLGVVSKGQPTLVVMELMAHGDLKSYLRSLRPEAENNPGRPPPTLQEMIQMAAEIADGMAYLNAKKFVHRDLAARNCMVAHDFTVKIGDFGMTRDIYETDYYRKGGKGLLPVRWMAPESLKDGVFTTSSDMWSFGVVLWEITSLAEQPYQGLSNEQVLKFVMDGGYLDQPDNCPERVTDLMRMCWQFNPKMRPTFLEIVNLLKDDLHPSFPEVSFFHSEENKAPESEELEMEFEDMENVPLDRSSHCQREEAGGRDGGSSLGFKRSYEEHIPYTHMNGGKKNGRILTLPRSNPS

Q: Which “binding to the insulin receptor (in words)” value (insulin receptor (IR); listed as CAP) does the source give for COc1cc(CNC(=O)CCCC/C=C/C(C)C)ccc1O [Capsaicin, trans-8-methyl-N-vanillyl-6-nonenamide] here?
A: did not bind significantly to the IR except at concentrations well beyond those physiologically possible

Q: And the “binding to the insulin receptor (in words)” value (insulin receptor (IR); listed as capsaicin)?
A: not the insulin receptor

Q: And the “Cancer-Related Effects” value (Mice [1])?
A: >Attenuates testosterone-induced prostate growth

Q: And the “Capsaicin Upregulates” value (Human, Mice)?
A: >INS sensitivity—TRPV-1 activation stimulated GLP-1 release * >Fatty acid oxidation—modulated via TRPV1 activation >INS secretion from pancreatic β-cells ***

Q: What about the “Downregulates or Inhibits” value (Human, Mice) of the same compound?
A: > Inflammatory factors **

Q: What about the “Cancer-Related Effects” value (Human (NSCLC cells)) of the same compound?
A: >Inhibition of tumor angiogenesis and metastasis

Q: And the “Downregulates or Inhibits” value (Human (NSCLC cells))?
A: >VEGF expression

Q: What about the Upregulates (Human (NSCLC cells)) of the same compound?
A: >Activates p53-SMAR1 positive feedback loop >Decreases endothelial cell migration and network reformation

Q: What about the Kd [2] of the same compound?
A: 0.9 µM

Q: And the “binding to the estrogen receptor (in words)” value ([2]; UV spectroscopy)?
A: bound to the estrogen receptor

Q: And the “binding to the estrogen receptor (in words)” value ([2]; UV spectroscopy, listed as CAP)?
A: bind directly to the estrogen receptor

Q: And the Kd ([2]; read-out: Kd, ESR1 lower affinity site, UV spectroscopy)?
A: 10 µM

Q: And the Kd ([3]; Binding (Kd) Insulin, Table 1)?
A: 4 µM

Q: What about the “binding to insulin (in words)” value [3] of the same compound?
A: bound to insulin

Q: And the Kd ([3]; binding constant to INS)?
A: ~4 µM

Q: And the “Capsaicin Upregulates” value (Human (male))?
A: >Fat metabolism through neuroadrenergic effects of TRPV-1 activation

Q: What about the “Capsaicin Upregulates” value (T1DM rats) of the same compound?
A: >Serum INS (CAP 6 mg/kg)

Q: What about the “Downregulates or Inhibits” value (T1DM rats) of the same compound?
A: >Fasting blood glucose levels and serum level of glycosylated protein

Q: And the “Cancer-Related Effects” value [4]?
A: >Induces apoptosis

Q: What about the Upregulates [4] of the same compound?
A: >Cleavage of procaspase-3 to caspase-3 >Interaction with caspase-1 >TRPV1-mediated Ca+ influx

Q: What about the “Binding (Kd) 4-Androstene-3,17-dione” value [5] of the same compound?
A: No binding

Q: And the “Binding (Kd) 5-Pregnan-3β-OL-2O-one” value [5]?
A: No binding

Q: What about the “Binding (Kd) Estradiol” value [5] of the same compound?
A: No binding

Q: And the “Binding (Kd) Estriol” value [5]?
A: No binding

Q: And the “Binding (Kd) Progesterone” value [5]?
A: No binding

Q: And the “Binding (Kd) Estradiol” value ([5]; listed as capsaicin)?
A: did not bind directly to estradiol

Q: What about the “Cancer-Related Effects” value [6] of the same compound?
A: >Regulation of autophagic pathways

Q: What about the Upregulates [6] of the same compound?
A: >Increases levels of LC3-II and Atg5 >Enhances p62 and Fap-1 degradation

Q: And the “Capsaicin Upregulates” value (Mice [7])?
A: >Ca^2+ ion release into the cell via TRPV-1 activation >Muscle actin–myosin interaction >Force generation >Intramuscular triglyceride consumption

Q: And the “competition with estradiol for binding to ESR1” value (ESR1)?
A: did not compete with estradiol for binding to ESR1

Q: And the “effect on estradiol (EST-HRP) binding to the estrogen receptor” value (ESR1; listed as CAP)?
A: enhanced binding of estradiol to its receptor in a concentration-dependent manner; also recorded: increases binding of estradiol to its receptor

Q: What about the “shift of the estradiol (EST-HRP) binding curve” value (ESR1) of the same compound?
A: approximately a half of a log unit

Q: What about the “shift of the estradiol (EST-HRP) binding curve” value (ESR1; listed as CAP) of the same compound?
A: half-log leftward shift

Q: What about the “Cancer-Related Effects” value (Rats (female)) of the same compound?
A: >Blocks formation of nitrosomethylurea-induced mammary tumors

Q: And the “Downregulates or Inhibits” value (Rats (female))?
A: >Decreased antioxidant enzymes

Q: And the Upregulates (Rats (female))?
A: >Increases estradiol, progesterone, CEA and malondialdehyde levels

Reference: PMC11856108, “Capsaicin (But Not Other Vanillins) Enhances Estrogen Binding to Its Receptor: Implications for Power Sports and Cancers” (Life, 2025)
